Experimental data published in article PMC11040327 (RSC Advances, 2024).
Like-named read-outs stand apart in the source and are kept apart here.

What was measured:
HCT-116 cells [1] = test: MTT cytotoxicity assay against HCT-116 cells; assay type: cell-based
VEGFR2 = VEGFR2 (Homo sapiens, UniProt P35968); test: VEGFR2 kinase inhibition assay; assay type: biochemical; conditions: for inhibition at 10 µM: read-out: VEGFR2 % Of inhibition at [10 μM], 10 μM compound
HCT-116 cells [2] = test: Annexin V/PI flow cytometry for apoptosis in HCT-116 cells; assay type: cell-based; conditions: treated at IC50 for 48 h
[3] = Homo sapiens, HCT-116, 48 h, read-out: IC50 (μM) ± SD, cytotoxicity against HCT-116 cells, HCT-116 cells, MTT assay, 48 h, three independent trials

VEGFR2, sequence (P35968 20-1356): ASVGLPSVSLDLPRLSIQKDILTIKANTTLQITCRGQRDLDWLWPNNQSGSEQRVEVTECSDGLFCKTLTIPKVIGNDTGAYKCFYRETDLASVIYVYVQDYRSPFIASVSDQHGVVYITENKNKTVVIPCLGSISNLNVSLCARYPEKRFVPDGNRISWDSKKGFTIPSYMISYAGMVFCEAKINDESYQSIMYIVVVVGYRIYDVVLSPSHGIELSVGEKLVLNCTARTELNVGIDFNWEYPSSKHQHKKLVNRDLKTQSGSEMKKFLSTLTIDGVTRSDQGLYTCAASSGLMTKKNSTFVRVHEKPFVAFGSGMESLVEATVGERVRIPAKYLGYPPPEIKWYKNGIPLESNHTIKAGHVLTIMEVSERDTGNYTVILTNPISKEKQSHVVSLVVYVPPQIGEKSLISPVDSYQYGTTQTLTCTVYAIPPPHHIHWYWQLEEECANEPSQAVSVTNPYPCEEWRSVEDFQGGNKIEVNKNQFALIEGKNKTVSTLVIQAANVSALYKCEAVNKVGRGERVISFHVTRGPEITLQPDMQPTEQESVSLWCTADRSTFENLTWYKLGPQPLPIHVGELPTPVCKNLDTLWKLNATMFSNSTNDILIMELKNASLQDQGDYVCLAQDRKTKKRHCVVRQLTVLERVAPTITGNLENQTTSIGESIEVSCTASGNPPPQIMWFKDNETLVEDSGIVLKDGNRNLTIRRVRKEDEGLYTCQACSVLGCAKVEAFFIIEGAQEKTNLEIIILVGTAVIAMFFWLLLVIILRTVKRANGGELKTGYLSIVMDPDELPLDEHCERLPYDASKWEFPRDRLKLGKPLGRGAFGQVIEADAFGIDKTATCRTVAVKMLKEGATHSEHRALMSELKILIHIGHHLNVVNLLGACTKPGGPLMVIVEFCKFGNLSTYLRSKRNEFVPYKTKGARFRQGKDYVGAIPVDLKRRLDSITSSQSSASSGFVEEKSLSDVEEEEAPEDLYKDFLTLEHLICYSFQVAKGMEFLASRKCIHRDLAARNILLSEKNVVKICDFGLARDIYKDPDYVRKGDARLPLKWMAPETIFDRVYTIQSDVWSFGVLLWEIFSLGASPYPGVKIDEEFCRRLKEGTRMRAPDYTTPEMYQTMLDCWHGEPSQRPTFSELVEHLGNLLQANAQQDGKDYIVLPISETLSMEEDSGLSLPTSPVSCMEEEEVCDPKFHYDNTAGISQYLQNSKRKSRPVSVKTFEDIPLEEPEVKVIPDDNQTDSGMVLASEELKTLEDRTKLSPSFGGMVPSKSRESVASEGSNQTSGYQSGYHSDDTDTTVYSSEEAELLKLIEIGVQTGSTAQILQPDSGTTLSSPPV

Row | Structure (SMILES) | IC50 (HCT-116 cells [1]; [3]) [µM] | also measured
1 | NNC(=O)CCn1nc(Cc2ccccc2)c2ccccc2c1=O [Compound 5, 3-(4-benzyl-1-oxophthalazin-2(1H)-yl) propanehydrazide] | 13.8 ± 0.2 | 
2 | C=CCNC(=O)CCn1nc(Cc2ccccc2)c2ccccc2c1=O [Compound 7a, N-allyl-3-(4-benzyl-1-oxophthalazin-2(1H)-yl)propanamide] | 34.8 ± 1.9 | 
3 | O=C(CCn1nc(Cc2ccccc2)c2ccccc2c1=O)N1CCOCC1 [Compound 7b, 4-benzyl-2-(3-morpholino-3-oxopropyl) phthalazin-1(2H)-one] | 24.3 ± 1.5 | 
4 | O=C(CCn1nc(Cc2ccccc2)c2ccccc2c1=O)N1CCCCC1 [Compound 7d, 4-benzyl-2-(3-oxo-3-(piperidin-1-yl)propyl) phthalazin-1(2H)-one] |  | inhibition at 10 µM (VEGFR2): 97.6%; apoptosis induction, fold versus untreated cells (HCT-116 cells [2]): 23.6 fold
5 | CCCCNC(=O)CCn1nc(Cc2ccccc2)c2ccccc2c1=O [Compound 7f, 3-(4-benzyl-1-oxophthalazin-2(1H)-yl)-N-butylpropanamide] | 18.8 ± 0.6 | 
6 | O=C(CCn1nc(Cc2ccccc2)c2ccccc2c1=O)NCC(=O)N/N=C\c1ccc([N+](=O)[O-])cc1 [Compound 13a, (Z)-3-(4-benzyl-1-oxophthalazin-2(1H)-yl)-N-(2-(2-(4-nitrobenzylidene) hydrazinyl)-2-oxoethyl)propanamide] | 45.7 ± 1.8 | 
7 | COc1ccc(/C=N\NC(=O)CNC(=O)CCn2nc(Cc3ccccc3)c3ccccc3c2=O)cc1 [Compound 13c, (Z)-3-(4-benzyl-1-oxophthalazin-2(1H)-yl)-N-(2-(2-(4-methoxybenzylidene) hydrazinyl)-2-oxoethyl)propanamide] | 0.64 ± 0.05 | VEGFR2 % Of inhibition at [10 μM] (VEGFR2; 10 μM compound, 10 µM): 96.4 ± 2.8%; IC50 (VEGFR2; VEGFR2 IC50 [nM] ± SD, five concentrations, three replicates): 19.8 ± 0.6 nM; inhibition at 10 µM (VEGFR2): 95.2%
8 | CNC(=O)c1cc(Oc2ccc(NC(=O)Nc3ccc(Cl)c(C(F)(F)F)c3)cc2)ccn1 [Sorafenib, reference compound] | 2.93 | IC50 (HCT-116 cells [1]; read-out: IC50 (μM) ± SD, cytotoxicity against HCT-116 cells, HCT-116 cells, MTT assay, 48 h, three independent trials): 3.23 ± 0.03 µM
